Measurements from patent publication US5574043A, “Certain [1,2,5-thiadiazol-4-yl]-1-azabicyclo [3.2.1]octane derivatives and their pharmaceutical uses” (Novo Nordisk A/S, priority 1995, dated 1996).
Structures can show the parent of a compound that is named as a salt.

Target: muscarinic acetylcholine receptors
Assay: Inhibition of specific binding of 3H-Oxotremorine-M (OXO BINDING) in vitro, rat cortex
Parameters: species or system male Wistar rats
Conditions: rat cortex homogenate, 3H-Oxotremorine 1.0 nM, 30 min at 25° C., pH 7.4
Procedure, shortened: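 Washed male Wistar rat cortex membranes in 20 mM Hepes pH 7.4 incubated 30 min at 25° C with 1.0 nM ³H-Oxotremorine-M (final) and test compound; nonspecific binding with 1 μg/ml arecoline. Filtration and scintillation counting; IC50 (ng/ml) for specific binding calculated assuming mass-action kinetics.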

| SMILES | Inhibition in vitro OXO BINDING IC50 [ng/mL] |
| --- | --- |
| CCCCOc1nsnc1C1=CC2CCCN(C1)C2.O=C(O)C(=O)O (stereo not shown) [Compound 95, 3-(3-Butoxy-1,2,5-thiadiazol-4-yl)-1-azabicyclo[3.3.1]non-3-ene oxalate] | 1.7 |
| COc1nsnc1C1=CN2CCC1CC2.O=C(O)C(=O)O [Compound 4, 3-(3-Methoxy-1,2,5-thiadiazol-4-yl)-1-azabicyclo[2.2.2]oct-2-ene oxalate] | 21 |
| Cn1nnnc1SCCCCSc1nsnc1C1CN2CCC1CC2 (stereo not shown) [Compound 106, oxalate] | 0.9 |
| COc1nsnc1[C@@H]1CN2CC[C@H]1C2 (relative stereo) [Compound 23, Endo-3-(3-methoxy-1,2,5-thiadiazol-4-yl)-1-azabicyclo[2.2.1]heptane oxalate] | 43 |
| O=C(O)/C=C/C(=O)O.c1ccc(OCCSc2nsnc2C2CN3CCC2CC3)cc1 (stereo not shown) [Compound 102, 3-(3-(2-Phenoxyethylthio)-1,2,5-thiadiazol-4-yl)-1-azabicyclo[2.2.2]octane fumarate] | 1.52 |
| CCCCCCOc1nsnc1C1=CN2CCC1CC2.O=C(O)C(=O)O [Compound 5, 3-(3-Hexyloxy-1,2,5-thiadiazol-4-yl)-1-azabicyclo[2.2.2]oct-2-ene oxalate] | 18 |
| Clc1nsnc1C1CN2CCC1CC2.O=C(O)C(=O)O (stereo not shown) [Compound 8, 3-(3-Chloro-1,2,5-thiadiazol-4-yl)-1-azabicyclo[2.2.2]octane oxalate] | 5.2 |
| CC(C)CCCOc1nsnc1[C@@H]1CN2CCC[C@@H]1C2 (relative stereo) [Compound 123, Exo-6-(3-isohexyloxy-1,2,5-thiadiazol-4-yl)-1-azabicyclo[3.2.1]octane dioxalate] | 0.47 |
| N#CCCCSc1nsnc1[C@H]1CN2CCC[C@H]1C2 (relative stereo) [Compound 81, Exo-6-(3-(3-cyanopropyithio)-1,2,5-thiadiazol-4-yl)-1-azabicyclo[3.2.1]octane oxalate] | 0.40 |
| C=CCCCCOc1nsnc1C1CN2CCC1CC2.O=C(O)/C=C/C(=O)O (stereo not shown) [Compound 48, 3-(3-(5-Hexenyloxy)-1,2,5-thiadiazol-4-yl)-1-azabicyclo[2.2.2]octane fumarate] | 0.43 |
| c1ccc(CCCSc2nsnc2[C@H]2CN3CC[C@H]2C3)cc1 (relative stereo) [Compound 41, Exo-3-(3-(3-phenylpropylthio)-1,2,5-thiadiazol-4-yl)-1-azabicyclo[2.2.1]heptane oxalate] | 0.56 |
| Clc1nsnc1[C@@H]1CN2CC[C@@H]1C2 (relative stereo) [Compound 21, Exo-3-(3-chloro-1,2,5-thiadiazol-4-yl)-1-azabicyclo[2.2.1]heptane oxalate] | 0.96 |
| CCSc1nsnc1[C@H]1CN2CCC[C@@H]1C2 (relative stereo) [Compound 25, Endo-6-(3-ethylthio-1,2,5-thiadiazol-4-yl)-1-azabicyclo[3.2.1]octane oxalate] | 1.9 |
| c1ccc(OCCSc2nsnc2[C@@H]2CN3CCC[C@H]2C3)cc1 (relative stereo) [Compound 84, Endo-6-(3-(2-phenoxyethylthio)-1,2,5-thiadiazol-4-yl)-1-azabicyclo[3.2.1]octane oxalate] | 13 |
| CC(C)CSc1nsnc1C1CN2CCC1CC2.O=C(O)/C=C/C(=O)O (stereo not shown) [Compound 101, 3-(3-Isobutylthio-1,2,5-thiadiazol-4-yl)-1-azabicyclo[2.2.2]octane fumarate] | 0.75 |
| CCCCOc1nsnc1C1CN2CCC1CC2.O=C(O)C(=O)O (stereo not shown) [Compound 46, 3-(3-Butoxy-1,2,5-thiadiazol-4-yl)-1-azabicyclo[2.2.2]octane oxalate] | 0.56 |
